Consider one compound from patent EP1080728A1, “PROSTAGLANDIN EP4 RECEPTOR AGONIST AND TREATMENT METHOD” (TORAY INDUSTRIES, INC., priority 1999, dated 2000).

Assay [1] concerns the target T1, human EP4 receptor subtype (Homo sapiens, UniProt P35408).
T1 construct: expressed in transfected cells; host or cells: COS-7 cells (transient expression), membrane fraction
As to the kind of experiment: Receptor binding study using PGE2 receptor subtype expression cells (3H-PGE2 displacement, membrane fraction). Conditions: human EP4 receptor transiently expressed in COS-7 cells, membrane fraction 10 µg/tube, 3H-PGE2 5 nM, 30°C for 1 hour; Ki = IC50/(1+[C]/Kd); read-out: DISSOCIATION CONSTANT Ki (nM) EP4. The procedure: The compound represented by the following formula (II) among the compounds represented by the general formula (I) strongly binds to the EP4 receptor as a subtype of the PGE2 receptor. The binding activity was confirmed in comparison with PGE2 by an experiment using the PGE2 receptor subtype expression cells. [drawing 2]
The experiment was carried out according to the previous report [Breyer, R. M. et al., J. Biol. Chem. 269, 6163-6169 (1994)], wherein the human EP4 receptor subtype was transiently expressed using COS-7 cells. These cells were prepared as membrane samples. The membrane fraction prepared (10 µg/tube) was incubated with reaction solution containing ^3H-PGE2 at 30°C for 1 hour. The reaction was terminated with ice-cold buffer [10mM MES (pH6.0), 10mM MgCl2, 1mM EDTA], and the bound ^3H-PGE2 was trapped on a glass filter (GF/C) by vacuum filtration under a reduced pressure, followed by counting the radioactivity with a liquid scintillator.
The Kd value and Bmax were determined from a Scatchard plot according to the conventional method. The non-specific binding was determined by the amount of binding in the presence of an excess amount (5 µM) on the non-labeled PGE2. Inhibitory action of the ^3H-PGE2 binding by the compound to be tested was determined at a concentration of ^3H-PGE2 of 5 nM by adding various concentrations of the compound to be tested. […]

In assay [2] the test system is human normal lung fibroblast cells. The assay can be described thus: Effects on collagen production in human normal lung fibroblast cells (TGF-β1 stimulated, Siricol Collagen Assay Kit). The format is cell-based. Conditions: compound 1 µM with TGF-β1 5 ng/ml, incubated for 24 hours; salt-soluble collagen; Reference (without compound): 1.1 µg/100,000 cells. The procedure:
The suppression action of the compound represented by the formula (II) on the collagen production from the fibroblast cells was confirmed by the following test method. After the human normal lung fibroblast cells were cultured for 48 hours under the condition of confluence (Eagle MEM culture medium with 0.45% FBS), the cells were added(1 µM) the compound represented by the formula (II) and transforming growth factor β1 (TGF-β1) at a concentration of 5 ng/ml, then incubated for 24 hours. The supernatant from the cell culture medium was concentrated by freeze-drying, and the amount of collagen (salt-soluble collagen) was […] assayed using Siricol Collagen Assay Kit (made by Biocolor Co.). The amounts of collagen in the supernatant were as follows: Reference: 1.1 µg/100,000 cells Compound (II): 0.5 µg/100,000 cells It was confirmed that production of collagen by TGF-β1 was suppressed by the compound according to the present invention.

Broadly, the Ki is the equilibrium dissociation constant of an inhibitor or competing ligand from its target.

T1 sequence (P35408 whole entry): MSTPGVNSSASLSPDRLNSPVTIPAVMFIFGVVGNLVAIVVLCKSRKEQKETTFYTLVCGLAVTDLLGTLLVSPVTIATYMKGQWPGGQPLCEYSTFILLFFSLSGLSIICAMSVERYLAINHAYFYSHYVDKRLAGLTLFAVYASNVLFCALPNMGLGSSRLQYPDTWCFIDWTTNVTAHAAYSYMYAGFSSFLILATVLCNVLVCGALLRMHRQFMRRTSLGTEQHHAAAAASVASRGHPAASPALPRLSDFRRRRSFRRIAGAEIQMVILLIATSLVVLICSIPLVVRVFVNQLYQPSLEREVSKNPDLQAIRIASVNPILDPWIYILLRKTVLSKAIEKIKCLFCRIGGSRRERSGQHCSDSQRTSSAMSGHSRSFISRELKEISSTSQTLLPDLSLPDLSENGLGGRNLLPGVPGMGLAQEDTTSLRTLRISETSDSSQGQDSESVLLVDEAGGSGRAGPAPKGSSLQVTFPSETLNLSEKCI

Consider `O=C(O)CCc1cccc2c1O[C@H]1C[C@@H](O)[C@H](/C=C/[C@@H](O)CC3CCCCC3)[C@@H]21` [COMPOUND (II)], for which the Ki in assay [1] turned out to be 19 nM. In addition, in assay [2], the “amounts of collagen in the supernatant” value was 0.5 µg/100,000 cells.
